Article PMC12213745, “Compounds from Cyclocarya paliurus leaves inhibit binary division of methicillin-resistant Staphylococcus aureus by disrupting FtsZ dynamic” (Frontiers in Microbiology, 2025)
≈ marks a conversion by molar mass, not a printed value. Like-named read-outs stand apart in the source and are kept apart here.

What was measured:
S. epidermidis (1.143) = assay: MIC, broth microdilution (CLSI); format: cell-based; settings: Staphylococcus epidermidis
Description: (§1) Staphylococcus aureus ATCC25923 and Escherichia coli ATCC25922 were obtained from the American Type Culture Collection (ATCC, Manassas, VA, USA). The Methicillin-resistant S. aureus (MRSA) clinical isolate MRSA-4, previously confirmed as mecA-positive and characterized for its antibiotic resistance profile ([Sun et al., 2023]), was used in this study. Staphylococcus epidermidis (GDMCC 1.143), Enterococcus faecalis (GDMCC 1.164), and Salmonella enterica subsp. enterica (GDMCC 1.1114) were obtained from the Guangdong Microbial Culture Collection Center (GDMCC, Guangzhou, China). The Pseudomonas aeruginosa PA14 strain was kindly provided by Professor Min Wu (Southwest Medical University, China). All bacterial strains were routinely cultured in Mueller-Hinton broth (MHB) or Luria-Bertani (LB) broth medium at 37°C with shaking at 200 rpm. Vancomycin was purchased from Solarbio Science & Technology Co., Ltd. (Beijing, China), and oxacillin was obtained from Taiji Group Hengsheng Pharmaceutical Co., Ltd. (Chengdu, China). The polyclonal rabbit primary anti-body to FtsZ was purchased from Abcam PLC (Cambridge, UK). Alexa488-conjugated goat anti-rabbit IgG was purchased from ZSGB-BIO Biotechnology (Beijing, China). DAPI staining solution was purchased from Beyotime Biotechnology (Shanghai, China).
(§2) The minimum inhibitory concentrations (MICs) of the test compounds (AA, MA, and UA) were determined using the standard broth microdilution method in accordance with the Clinical and Laboratory Standards Institute (CLSI) guidelines ([Humphries et al., 2021]). Bacteria were cultured in MHB or LB broth at 37°C with shaking (200 rpm) to the logarithmic phase, then diluted to a final density of 1 × 10^6 CFU/mL. Test compounds (dissolved in DMSO) and positive controls (vancomycin and oxacillin) were diluted in MHB and serially twofold diluted in 96-well plates. Each well was inoculated with 100 μL of bacterial suspension (1 × 10^6 CFU/mL), yielding a final bacterial density of 5 × 10^5 CFU/mL and a total volume of 200 μL. The final concentrations tested were 128 to 1 μg/mL for AA, MA, and UA; 16 to 0.5 μg/mL for vancomycin; and 64 to 0.0625 μg/mL for oxacillin. DMSO was used as a solvent control. Plates were incubated statically at 37°C for 18–24 h. After incubation, the OD600 was measured using a microplate reader (SpectraMax i3x, Molecular Devices, CA, USA). The MIC was defined as the lowest compound concentration that caused ≥ 90% inhibition of bacterial growth compared to the drug-free growth control. All tests were performed in three independent biological replicates.
(§3) Following the isolation and identification of AA, MA, and UA from ECPL, we evaluated their antibacterial activity and spectrum. The MICs of the compounds were determined against MRSA-4, S. aureus ATCC25923, S. epidermidis, and E. faecalis (Gram-positive), as well as P. aeruginosa PA14, E. coli ATCC25922, and S. enterica subsp. Enterica (Gram-negative) using the standard broth microdilution method in accordance with CLSI guidelines ([Humphries et al., 2021]).

E. coli ATCC25922 = assay: MIC, broth microdilution (CLSI); format: cell-based; settings: Escherichia coli
Description: as §1, §2, §3

E. faecalis = assay: MIC, broth microdilution (CLSI); format: cell-based; settings: Enterococcus faecalis
Description: as §1, §2, §3

MRSA-4 [1] = assay: Time-dependent killing assay; format: cell-based, Methicillin-resistant S. aureus; settings: for time-kill outcome at 1 × and 2 × MIC: 1 × or 2 × MIC, initial reduction within 2 h, regrowth by 24 h; for nature of antibacterial effect (time-kill assays): MRSA-4
Method: An overnight culture of MRSA-4 was diluted 1:100 in fresh MHB and incubated at 37°C with shaking (200 rpm) until reaching mid-log phase (OD600 = 0.4–0.6). The culture was then adjusted to 1 × 10^6 CFU/mL and treated with AA, MA, or UA at concentrations of 1×, 2×, and 4 × MIC. 2 × MIC of vancomycin was used as a positive control, and an equivalent volume of DMSO served as the negative control. The cultures were incubated at 37°C with shaking (200 rpm) during the assay. At designated time points (0, 1, 2, 4, 8, and 24 h), samples were collected, serially diluted tenfold in sterile PBS, and 100 μL of appropriate dilutions were plated on LB agar. Plates were incubated at 37°C for 18–24 h, and viable bacteria were quantified. All experiments were performed in biological triplicates.
We next performed time-kill kinetics assays to characterize the time-dependent antibacterial effects of AA, MA, and UA against MRSA-4. Bacterial cultures were exposed to AA, MA, and UA at 1×, 2×, and 4 × their respective MICs, and viable CFU were counted at designated time points (0, 1, 2, 4, 8, and 24 h). As shown in the time-kill curves (Figure 1), treatment with 1 × or 2 × MIC of AA, MA, or UA led to an initial reduction in bacterial load within the first 2 h.

MRSA-4 [2] = assay: SEM analysis, cell long axis; format: cell-based, Methicillin-resistant S. aureus; settings: 2 × MIC, 2 h, mean ± SD, PBS control 0.53 ± 0.04
Method: Scanning electron microscopy (SEM) was used to observe the morphological changes in bacterial cells treated with the isolated compounds. S. aureus ATCC 25923 and MRSA-4 were grown in MHB to mid-log phase (OD600 = 0.4–0.6) as previously described. The bacteria cultures were treated with AA, MA, or UA at 2 × MIC for 2 h at 37°C with shaking at 150 rpm. Untreated cultures (PBS group) served as the growth control. After incubation, bacterial cells were harvested by centrifugation and washed three times with PBS (pH 7.2). Coverslips (8 mm diameter) were cleaned with absolute ethanol under ultrasonication, air-dried, immersed in 0.1% (w/v) chitosan solution (dissolved in 1% acetic acid) for 5 s, and air-dried again at room temperature ([Su et al., 2022]). A 25 μL aliquot of the washed bacterial suspension was added to each coverslip and allowed to adhere for 1 h at room temperature. Adhered cells were fixed with 1 mL of 2.5% (v/v) glutaraldehyde at 4°C overnight. Fixed samples were rinsed 2–3 times with PBS (5 min per rinse), then dehydrated through a graded ethanol series: 50, 70, and 90% ethanol (each once for 5 min), followed by 100% ethanol (three times for 5 min each). After dehydration, samples were air-dried overnight at room temperature. SEM imaging was performed using an EVO 10 scanning electron microscope (Zeiss, Jena, Germany). Cell long-axis statistical analysis was conducted using ImageJ software (Version 1.42q, National Institutes of Health, MD, USA).
Having established the antibacterial activity of AA, MA, and UA, we next examined their effects on bacterial morphology. We employed SEM to examine the alterations induced by these compounds in S. aureus ATCC25923 and MRSA-4. Bacterial cultures were treated with AA, MA, or UA at 2 × MIC for 2 h, while untreated (PBS group) cultures served as negative controls. […] In PBS groups, both S. aureus ATCC25923 and MRSA-4 maintained typical spherical morphology with smooth and intact surfaces.

[3] = S. epidermidis (1.143), ≥ 90% growth inhibition, 18–24 h, read-out: MIC
[4] = E. coli ATCC25922, ≥ 90% growth inhibition, 18–24 h, read-out: MIC
[5] = E. faecalis, ≥ 90% growth inhibition, 18–24 h, read-out: MIC

| Compound | MIC (S. epidermidis (1.143); [3]) | MIC (E. coli ATCC25922; [4]) | MIC (E. faecalis; [5]) | time-kill outcome at 1 × and 2 × MIC (MRSA-4 [1]) | bacterial counts (below the detection limit) (MRSA-4 [1]; 4 × MIC) | reduction of viable bacterial counts (MRSA-4 [1]; 4 × MIC, within 2 h) | nature of antibacterial effect (time-kill assays) (MRSA-4 [1]) | length of long axis of cells (MRSA-4 [2]) | reduction of viable bacterial counts (MRSA-4 [1]; 4 × MIC, at/over 24 h) | MIC (S. epidermidis (1.143)) | MIC (E. coli ATCC25922; ATCC25922) | MIC (E. faecalis) |
| --- | --- | --- | --- | --- | --- | --- | --- | --- | --- | --- | --- | --- |
| C[C@H]1[C@H](C)CC[C@]2(C(=O)O)CC[C@]3(C)C(=CC[C@@H]4[C@@]5(C)C[C@@H](O)[C@H](O)[C@@](C)(CO)[C@@H]5CC[C@]43C)[C@H]12 [AA, asiatic acid] | 16 µg/mL (≈ 32.7 µM) | > 128 µg/mL | 16 µg/mL (≈ 32.7 µM) | primarily bacteriostatic activity | < 2 log10 CFU/mL | > 3 log10 CFU/mL | bactericides | 0.75 ± 0.07 μm | – | – | – | – |
| C[C@H]1[C@H](C)CC[C@]2(C(=O)O)CC[C@]3(C)C(=CC[C@@H]4[C@@]5(C)CC[C@H](O)C(C)(C)[C@@H]5CC[C@]43C)[C@H]12 [UA, ursolic acid] | 8 µg/mL (≈ 17.5 µM) | > 128 µg/mL | 2 µg/mL (≈ 4.38 µM) | primarily bacteriostatic activity | – | – | bacteriostatic | 0.69 ± 0.06 μm | ≤ 3 log10 CFU/mL | – | – | – |
| CC1(C)CC[C@]2(C(=O)O)CC[C@]3(C)C(=CC[C@@H]4[C@@]5(C)C[C@@H](O)[C@H](O)C(C)(C)[C@@H]5CC[C@]43C)[C@@H]2C1 [MA, maslinic acid] | – | – | – | primarily bacteriostatic activity | – | – | bactericides | 0.76 ± 0.10 μm | > 3 log10 CFU/mL | 8 µg/mL (≈ 16.9 µM) | > 128 µg/mL | 4 µg/mL (≈ 8.46 µM) |
